{
  "source": "patent US5719151A",
  "about": "“Substituted benzene compounds” (priority 1990, dated 1998)",
  "key": {"[1]": {"test_system": "Trypanosoma brucei rhodesiense (GUP 2814)", "experiment": "Antigenic switching in Trypanosoma brucei rhodesiense (GUP 2814) in axenic culture, ILTat 1.63 to ILTat 1.22", "format": "cell-based", "experimental": "(§1) 1. TRYPANOSOMES: Stabilates of two clones, GUP 2889 and GUP 2814 were used.\nSpecific rabbit antisera and ascites fluid against specific Variable Antigen Types were used for trypanolysis and immunofluorescence at the appropriate dilutions.\n(§2) Antibody mediated lysis of a specific VAT of bloodstream form trypanosomes was performed by incubating an appropriate aliquot of a recently prepared trypanosome suspension at room temperature for 1 hour, in appropriately diluted specific antibody and guinea pig complement. The trypanosomes were observed and counted with inverted phase-contrast microscopy at a magnification of 150× to check for viability and to observe lysed trypanosomes, which appeared stumpy and vacuolated.\n(§3) Cultures were initiated with aliquots of the above prepared trypanosome suspension. Duplicate T25 flasks, with 10 ml of medium were prepared for each experimental parameter examined. In each experiment the trypanosome density was determined at the initiation of the culture and at the end of the axenic culture period (usually after 18-24 hours) using a Neubaurer haemocytometer.\nThe prevalences of VATs in each cultures population were determined using immunofluorescence as follows: contents of one of the duplicate flasks (or both) were transferred to a universal bottle, and the trypanosomes were sedimented by centrifugation at 3,000 rpm at room temperature in a bench-top MSE centrifuge. The trypanosomes were resuspended in 10 μl of 20%(v/v) FCS supplemented EMEM* medium. Samples of this suspension were applied as smears to clean microscope slides coated with 0.1% poly-L-Lysine for immunofluorescence (IF) analysis for the frequency of specific VATs. Prevalence estimates of VATs were based on counts of more than 1000 labeled trypanosomes per flask.\nIndirect immunofluorescence on acetone-fixed trypanosomes on slides was performed essentially according to the method of van Meirvenne et al., (Ann. Soc. Belge Med. Trop. (1975) 55: 1-23), using appropriately diluted rabbit antiserum or undiluted monoclonal lantibodies derived from hybridoma culture supernatants. Trypanosomes were visualized with fluorescein isothiocyanate(FITC)-labeled conjugated anti rabbit-FITC antibodies (Sigma:No.F-0382) for VAT 1.22 and 1.3, and with anti-mouse-FITC (Sigma:No.F-0257) for VATs 1.64c, 1.63a and 1.61. These secondary antibodies were diluted in PBS (pH8.0) and also contained Evans Blue (1:10,000 w/v) and Ethidium Bromide (5 μg/ml) as a counterstain.\nEstimates of the prevalence of particular trypanosome VATs were based on counts of at least 200 trypanosomes, and at least 1000 trypanosomes were counted if the frequency of positive organisms were very low.\nThe rate of switching was estimated essentially as described by Turner and Barry (Parasitology (1989) 99: 67-75). Briefly, the size of the trypanosome population expressing aminor VAT was calculated at the time points […] as Nt1 and Nt2 respectively, from the mean total population density and from the prevalence of that VAT in the population.\n(§4) The instantaneous rate of switching/cell/generation, σi, has been calculated. These values of σ are estimates of the per capita rate for switching to minor VATs. However, these estimates have been made in populations manipulated to consist of a major VAT, the prevalence of which is much higher than that of minor VATs; switching from minor to major VATs has therefore been assumed to be negligible, as has interswitching between minor VATs. Growth rates, r, have been expressed as population doubling times Td, where Td=loge2/r. Switching rates values are presented in the tables as finite, of, rate estimates.\nTwo clones of Trypanosoma brucei rhodesiense, GUP 2889 and […] were initiated in culture with viable trypanosomes after in vitro trypanolysis of heterotype VAT 1.22 with GUPM 27.1 monoclonal antibody. Viable populations of these trypanosomes were incubated with various concentrations of the poly(ADP-Ribose)polymerase inhibitors. […]"}, "[2]": {"biological_target": "poly(ADP-ribose)polymerase (Homo sapiens, UniProt P09874)", "sequence (P09874 whole entry)": "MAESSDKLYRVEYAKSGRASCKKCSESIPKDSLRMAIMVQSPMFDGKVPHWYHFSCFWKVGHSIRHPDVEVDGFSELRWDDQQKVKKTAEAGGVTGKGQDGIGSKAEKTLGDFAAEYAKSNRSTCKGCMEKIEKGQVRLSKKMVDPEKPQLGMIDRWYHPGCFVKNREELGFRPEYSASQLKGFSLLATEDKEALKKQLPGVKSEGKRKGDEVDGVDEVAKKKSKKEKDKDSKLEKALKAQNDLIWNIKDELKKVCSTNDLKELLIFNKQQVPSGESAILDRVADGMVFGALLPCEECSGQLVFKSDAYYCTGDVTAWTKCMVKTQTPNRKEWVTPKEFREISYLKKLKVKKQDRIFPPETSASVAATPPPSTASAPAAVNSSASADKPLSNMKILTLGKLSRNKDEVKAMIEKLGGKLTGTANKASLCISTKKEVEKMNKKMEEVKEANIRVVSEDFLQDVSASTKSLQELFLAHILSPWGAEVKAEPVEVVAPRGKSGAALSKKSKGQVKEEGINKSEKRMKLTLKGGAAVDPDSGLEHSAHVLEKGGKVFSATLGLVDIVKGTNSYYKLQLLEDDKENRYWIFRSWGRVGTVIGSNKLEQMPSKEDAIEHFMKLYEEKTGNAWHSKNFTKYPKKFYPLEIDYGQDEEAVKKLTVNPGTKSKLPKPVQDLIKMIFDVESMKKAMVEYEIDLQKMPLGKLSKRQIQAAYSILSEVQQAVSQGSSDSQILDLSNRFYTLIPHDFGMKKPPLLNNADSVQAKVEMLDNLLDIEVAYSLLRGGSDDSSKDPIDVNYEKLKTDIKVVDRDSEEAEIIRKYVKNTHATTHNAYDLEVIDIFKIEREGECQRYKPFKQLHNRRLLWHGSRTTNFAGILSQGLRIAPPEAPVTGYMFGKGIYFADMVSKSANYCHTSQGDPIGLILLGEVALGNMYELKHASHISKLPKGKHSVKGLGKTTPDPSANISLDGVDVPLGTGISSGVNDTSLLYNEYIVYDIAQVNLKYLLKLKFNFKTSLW", "experiment": "Determination of inhibitory effect on poly(ADP-ribose)polymerase (enzyme activity, Ki, Km)", "format": "biochemical", "experimental": "The enzyme activity was assayed by standard procedures (Murray, B. et al., Mutation Research (1986) 165:191-198). This reference also describes the estimation of the Km (Michaelis Constant) values. The estimation of the Ki (inhibitory constant) values was performed by calculating the Km value in the presence or absence of known concentrations of the enzyme inhibitor. Standard biochemical calculations were then used to calculate the Ki value. The smaller K1 values indicate stronger inhibition. The degree of enzyme inhibition shown in the Table was estimated by measuring the enzyme activity in the presence and absence of the indicated concentrations of inhibitor."}, "[3]": {"test_system": "Trypanosoma brucei rhodesiense", "experiment": "Growth of Trypanosoma brucei rhodesiense in axenic culture (growth inhibition)", "format": "cell-based", "experimental": "as §1\nPrior to propagation in vitro cell free culture conditions the parasites from stabilates were expanded in CD1 (8-9 week old) female mice. Infected mouse blood obtained by cardiac puncture in EMEM* with 20 U/ml heparin was used for the preparation of blood smears for immunofluorescence analysis.\nas §2, §3, §4\nTwo clones of Trypanosoma brucei rhodesiense, GUP 2889 and […] were initiated in culture with viable trypanosomes after in vitro trypanolysis of heterotype VAT 1.22 with GUPM 27.1 monoclonal antibody. Viable populations of these trypanosomes were incubated with various concentrations of the poly(ADP-Ribose)polymerase inhibitors. The effect of each concentration of inhibitor was tested in duplicate in T25 culture flasks set up for the axenic culture inhibition experiments. Growth was monitored after 24 hours of incubation at 37° C. in 4-5% CO2 in air. Relative growth inhibition and frequency of antigenic switching of were calculated.\nIn this assay a continuously growing bloodstream form trypanosome population was incubated in serial inhibitor dilutions in T25 culture flasks using an inoculum of 2×10^4 ·1×10^5 trypanosomes per ml. After an incubation period of 24-48 hours in axenic culture at 37° C. in a 4-5% CO2 incubator, trypanosomes were counted using a haemocytometer and growth inhibition was determined based on the number of generations (kt) of inhibitor treated cultures compared to controls. […] Growth is reduced by up to 17% when 3-N-formylluminol(3-N-FL) is present in the concentration range of 50-400 μM, Table 7."}},
  "note": "Read-outs that look alike come from different tables or passages of the source.",
  "data": [
    {"molecule": "NC(=O)c1cccc(NC=O)c1", "note": "[Compound 1, 3-formylaminobenzamide]", "values": [
      {"measurement": "switching frequency, from ILTat 1.63 to 1.22", "setting": "[1]; 1 mM, Horse Serum (Bristol), two of three experiments", "value": "reproducible reduction of switching frequency"},
      {"measurement": "σf (finite switch rate per trypanosome per generation)", "setting": "[1]; DHS/EMEM, 1.0 mM, control 210.8", "value": "117.0 x10^-2"},
      {"measurement": "σf (finite switch rate per trypanosome per generation)", "setting": "[1]; ES/EMEM (first experiment), 1.0 mM, control 5.3", "value": "2.26 x10^-2"},
      {"measurement": "σf (finite switch rate per trypanosome per generation)", "setting": "[1]; ES/EMEM (second experiment), 1.0 mM, control 2.17", "value": "0.94 x10^-2"},
      {"measurement": "σf (finite switch rate per trypanosome per generation)", "setting": "[1]; ES/EMEM, 0.5 mM, control 13.65", "value": "0.95 x10^-2"},
      {"measurement": "σf (finite switch rate per trypanosome per generation)", "setting": "[1]; FCS/EMEM, 1.0 mM, control 0.46", "value": "0.72 x10^-2"},
      {"measurement": "activity at 1000 µM", "setting": "[1]; Trypanosoma brucei, RHODESIENSE, read-out: RAS (relative antigenic switching), DHS/EMEM, 1.0 mM, control 100", "value": 55.5, "unit": "%"},
      {"measurement": "activity at 1000 µM", "setting": "[1]; Trypanosoma brucei, RHODESIENSE, read-out: RAS (relative antigenic switching), ES/EMEM (first experiment), 1.0 mM, control 100", "value": 42.6, "unit": "%"},
      {"measurement": "activity at 1000 µM", "setting": "[1]; Trypanosoma brucei, RHODESIENSE, read-out: RAS (relative antigenic switching), ES/EMEM (second experiment), 1.0 mM, control 100", "value": 43.5, "unit": "%"},
      {"measurement": "activity at 500 µM", "setting": "[1]; Trypanosoma brucei, RHODESIENSE, read-out: RAS (relative antigenic switching), ES/EMEM, 0.5 mM, control 100", "value": 7, "unit": "%"},
      {"measurement": "activity at 1000 µM", "setting": "[1]; Trypanosoma brucei, RHODESIENSE, read-out: RAS (relative antigenic switching), FCS/EMEM, 1.0 mM, control 100", "value": 136, "unit": "%"},
      {"measurement": "inhibition at 5 µM", "setting": "[2]; 5.0 μM, read-out: Inhibitor Activity (%)", "value": 66, "unit": "%"},
      {"measurement": "Ki", "setting": "[2]; poly(ADP-ribose)polymerase, read-out: Ki (Inhibition Constant)", "value": "1610 ± 150", "unit": "nM"},
      {"measurement": "reduction in growth rate", "setting": "[3]; 0.5 to 2.0 mM", "value": 7, "unit": "%"},
      {"measurement": "kt (generation number)", "setting": "[3]; GUP 2814, DHS/EMEM, 1.0 mM, control 2.44", "value": 2.29, "unit": "doublings"},
      {"measurement": "kt (generation number)", "setting": "[3]; GUP 2814, ES/EMEM (first experiment), 1.0 mM, control 2.02", "value": 1.56, "unit": "doublings"},
      {"measurement": "kt (generation number)", "setting": "[3]; GUP 2814, ES/EMEM (second experiment), 1.0 mM, control 2.36", "value": 2.14, "unit": "doublings"},
      {"measurement": "kt (generation number)", "setting": "[3]; GUP 2814, ES/EMEM, 0.5 mM, control 1.95", "value": 2.09, "unit": "doublings"},
      {"measurement": "kt (generation number)", "setting": "[3]; GUP 2814, FCS/EMEM, 1.0 mM, control 2.143", "value": 1.92, "unit": "doublings"},
      {"measurement": "activity at 500 µM", "setting": "[3]; Trypanosoma brucei, RHODESIENSE, 0.5 mM, n = 6, control 1.00, read-out: Relative Growth Rate (S.D., n)", "value": "105 ± 13", "unit": "%"},
      {"measurement": "activity at 1000 µM", "setting": "[3]; Trypanosoma brucei, RHODESIENSE, 1.0 mM, n = 11, control 1.00, read-out: Relative Growth Rate (S.D., n)", "value": "103 ± 23", "unit": "%"},
      {"measurement": "activity at 2000 µM", "setting": "[3]; Trypanosoma brucei, RHODESIENSE, 2.0 mM, n = 6, control 1.00, read-out: Relative Growth Rate (S.D., n)", "value": "93 ± 22", "unit": "%"},
      {"measurement": "activity at 1000 µM", "setting": "[3]; Trypanosoma brucei, RHODESIENSE, GUP 2814, DHS/EMEM, 1.0 mM, control 100, read-out: Relative Growth", "value": 93.9, "unit": "%"},
      {"measurement": "activity at 1000 µM", "setting": "[3]; Trypanosoma brucei, RHODESIENSE, GUP 2814, ES/EMEM (first experiment), 1.0 mM, control 100, read-out: Relative Growth", "value": 77.2, "unit": "%"},
      {"measurement": "activity at 1000 µM", "setting": "[3]; Trypanosoma brucei, RHODESIENSE, GUP 2814, ES/EMEM (second experiment), 1.0 mM, control 100, read-out: Relative Growth", "value": 90.8, "unit": "%"},
      {"measurement": "activity at 500 µM", "setting": "[3]; Trypanosoma brucei, RHODESIENSE, GUP 2814, ES/EMEM, 0.5 mM, control 100, read-out: Relative Growth", "value": 107, "unit": "%"},
      {"measurement": "activity at 1000 µM", "setting": "[3]; Trypanosoma brucei, RHODESIENSE, GUP 2814, FCS/EMEM, 1.0 mM, control 100, read-out: Relative Growth", "value": 89.6, "unit": "%"}
    ]}
  ]
}
